The values below come from ChEMBL document CHEMBL4699406, “Reversing binding sensitivity to A147T translocator protein” (RSC Med Chem, 2020).

Each structure is given as a SMILES string. Calls of active or inactive are those of the source. No cut-off for these calls is given here.

In assay [1] the target is Translocator protein (Homo sapiens, UniProt P30536). Briefly: Displacement of [3H]PK11195 from wild-type human TSPO expressed in HEK293 cell membranes after 90 mins by scintillation counting method. On the set-up: species or system Cell membrane. (In a radioligand displacement assay an active substance lowers the binding of a labelled ligand.)
Assay [2] is filed under the species Homo sapiens. Briefly: Selectivity index, ratio of Ki for human TSPO A147T mutant expressed in HEK293 cell membranes to Ki for human TSPO expressed in HEK293 cell membranes. Format: cell-based.

Translocator protein, sequence (P30536 whole entry): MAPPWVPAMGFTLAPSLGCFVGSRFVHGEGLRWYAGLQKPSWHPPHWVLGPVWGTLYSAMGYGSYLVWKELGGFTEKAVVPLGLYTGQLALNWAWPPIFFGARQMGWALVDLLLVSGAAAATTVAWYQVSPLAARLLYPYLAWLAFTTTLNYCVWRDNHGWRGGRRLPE

Take `CCN(CC)C(=O)Cn1c(-c2ccc(OC)cc2)nc2c(C)cc(C)cc21`: in assay [1], the inhibition constant (Ki) (usually a dissociation constant, usually derived from enzyme kinetics or from competition with a known ligand) was determined as 0.208 µM. Besides, in assay [2], the Ratio Ki was 4.2.

In assay [1], `C#CCN(C)C(=O)c1cc2cc(NS(C)(=O)=O)ccc2n1Cc1ccc(OC)cc1` came in with a Ki of 1.5 µM. In addition, in assay [2], the Ratio Ki came out at 0.5.

Take `C#CCN(C)C(=O)c1cc2cc(C)ccc2n1Cc1ccc(OC)nc1`: in assay [1], the Ki is > 10 µM. In addition, the Ratio Ki in assay [2] turned out to be 0.1.

For `CC(=O)N(Cc1ccccc1)c1cc(C)cc(C)c1`, the Ki in assay [1] is 0.275 µM. Also, in assay [2], the Ratio Ki worked out at 4.6.

On to `CCN(CC)C(=O)c1nc2ccccc2n1Cc1ccccc1`, for which the Ki in assay [1] is > 10 µM. Also, in assay [2], the “Ratio Ki” value was “inactive”.

In the case of `CCN(CC)C(=O)CN(Cc1ccccc1)c1cc(C)cc(C)c1`, the Ki in assay [1] was determined as 1.01 µM. The Ratio Ki in assay [2] stood at 4.2.

Consider `CC(=O)N(Cc1ccc(OCc2ccccc2)cc1)c1cc(C)cc(C)c1`, for which the Ki in assay [1] came out at 0.377 µM. For the same compound, the Ratio Ki in assay [2] was 2.

With `CCN(CC)C(=O)c1cc2cc(C)ccc2n1Cc1ccc(O)cc1`, in assay [1], the Ki is > 10 µM. The “Ratio Ki” value in assay [2] was “inactive”.

Consider `CCN(CC)C(=O)c1nc2ccccc2n1Cc1ccc(Cl)cc1`, for which, in assay [1], the Ki was > 10 µM. Besides, in assay [2], the Ratio Ki was < 0.3.

In turn, `CCN(CC)C(=O)CN(Cc1ccc(OCc2ccccc2)cc1)c1cc(C)cc(C)c1` displayed an inhibition constant (Ki) in assay [1] of 0.433 µM. Also, the Ratio Ki in assay [2] was found to be 4.2.

The compound `CC(=O)N(Cc1ccc(OCCF)cc1)c1cc(C)cc(C)c1` yielded an inhibition constant (Ki) in assay [1] of 0.275 µM. The Ratio Ki in assay [2] was 14.3.

Take `COc1ccc(CN(C(C)=O)c2cc(C)cc(C)c2)cc1`: the Ki in assay [1] was 0.5 µM. The Ratio Ki in assay [2] stood at 5.6.

Consider `CCN(CC)C(=O)Cn1c(-c2ccc(OC)cc2)cc2c(C)cc(C)cc21`, for which the Ki in assay [1] stood at 0.114 µM. In assay [2], the Ratio Ki is 5.7.

Consider `CCN(CC)C(=O)c1nc2ccccc2n1Cc1ccc(OC)nc1`, for which, in assay [1], the inhibition constant (Ki) was > 10 µM. Besides, the “Ratio Ki” value in assay [2] is “inactive”.

As for `CCN(CC)C(=O)c1cc2cc(C)ccc2n1Cc1ccc(OCc2ccccc2)cc1`, in assay [1], the Ki is > 10 µM. In assay [2], the “Ratio Ki” value was “inactive”.

The compound `C#CCN(C)C(=O)c1nc2ccccc2n1Cc1ccc(OC)cc1` displayed a Ki in assay [1] of 3.28 µM. The Ratio Ki in assay [2] is > 3.

The compound `CC(=O)N(Cc1ccc(OC(C)C)cc1)c1cc(C)cc(C)c1` had a Ki in assay [1] of 0.823 µM. The Ratio Ki in assay [2] is 3.8.

In assay [1], `CCN(CC)C(=O)c1nc2ccccc2n1Cc1ccc(OC)cc1` yielded a Ki of 3.06 µM. Also, the Ratio Ki in assay [2] was > 3.3.

Take `CCN(CC)C(=O)CN(Cc1ccc(OCCF)cc1)c1cc(C)cc(C)c1`: in assay [1], affinity was put at a Ki of 1.29 µM. Also, in assay [2], the Ratio Ki is > 7.7.

As to `C#CCN(C)C(=O)c1nc2ccccc2n1Cc1ccc(Cl)cc1`, the inhibition constant Ki in assay [1] was > 10 µM. Also, the “Ratio Ki” value in assay [2] was “inactive”.

As for `CN(Cc1ccccc1)C(=O)c1nc2ccccc2n1Cc1ccc(Cl)cc1`, in assay [1], the inhibitory constant (Ki) is > 10 µM. In addition, the “Ratio Ki” value in assay [2] is “inactive”.

Consider `CCN(CC)C(=O)c1cc2cc(C)ccc2n1Cc1cn[nH]n1`, for which the inhibitory constant (Ki) in assay [1] is > 10 µM. For the same compound, the “Ratio Ki” value in assay [2] is “inactive”.

Regarding `CCN(CC)C(=O)CN(Cc1ccc(OC(C)C)cc1)c1cc(C)cc(C)c1`, the inhibitory constant (Ki) in assay [1] came to 2.24 µM. Besides, in assay [2], the Ratio Ki was > 4.5.

Compound `CCN(CC)C(=O)CN(Cc1ccc(OC)cc1)c1cc(C)cc(C)c1` showed a Ki in assay [1] of 1.2 µM. Also, the Ratio Ki in assay [2] stood at 3.5.

Regarding `C#CCN(C)C(=O)c1cc2cc(NC(C)=O)ccc2n1Cc1ccc(OC)cc1`, the Ki in assay [1] was 2.07 µM. The Ratio Ki in assay [2] is 1.4.
